Laboratory results from patent US7875625B2, “Cyclohepta[b]pyridine-3-carbonylguanidine derivative and pharmaceutical product containing same” (Toa Eiyo Ltd., priority 2005, dated 2011).

Tests used:
[1] = Metabolic stability test in rat (generation of control compound in plasma); assay type: in vivo; conditions: male SD rats; for Plasma concentration of the control compound, after 5 min / Plasma concentration of the control compound, after 15 min / Plasma concentration of the control compound, after 30 min / Plasma concentration of the control compound, after 60 min / Plasma concentration of the control compound, after 120 min: equivalent of 1 mg/kg control compound via tail vein, LC/MS/MS; for Decomposition into the Control Compound in vivo (in words): tail vein, plasma 5-120 min
Excerpt: The compound represented by Formula (1) of the present invention has a structure in which the hydroxyl group on the 9-position of a 9-hydroxymethyl-cyclohepta[b]pyridine-3-carbonylguanidine derivative is converted to a specific substituent. However, if the compound is metabolized in vivo to remove the specific substituent from the compound, there may be generated the original 9-hydroxymethyl-cyclohepta[b]pyridine-3-carbonylguanidine derivative, which has toxic effects on the central nervous system. Thus, the inventive compounds as synthesized in Examples were administered in vivo to study whether the control compound, which was the corresponding 9-hydroxymethyl product, was generated.
Male SD rats (7 weeks old) were administered at 1 mg/kg (an amount calculated excluding salts) of the control compound, an equivalent amount of the Inventive Compound 2, 4, 6, 7 or 12, or Reference Compound 20, through the tail vein. After administration, about 0.2 mL of blood samples were collected after 5, 15, 30, 60 and 120 minutes, and the blood samples were centrifuged at 4° C. at a speed of rotation of 15000 for 15 minutes, thus to separate the supernatant plasma. The concentration of the control compound in the plasma was measured by LC/MS/MS. The measurement results were shown as +++ when the detected plasma concentration of the control compound is 200 ng/mL or greater; ++ for more than 100 ng/mL and less than 200 ng/mL; + for more than 20 ng/mL and less than 100 ng/mL; and − for less than 20 ng/mL or no detection.

[2] = Comparative test for transferability to the brain in rat; assay type: in vivo; conditions: male SD rats, 50 mg/kg via tail vein
Description: To male SD rats (6 weeks old), the Control Compound or the Inventive Compound 2 was administered through the tail vein in an amount of 50 mg/kg. After administration, whole blood samples were collected over time from the abdominal aorta under etherization, and the brain tissues were extracted immediately. The brain tissues were lightly washed off to remove the blood attached around with physiological saline, and subsequently the tissues were frozen in liquid nitrogen and preserved at −30° C. until analyzed. The blood was centrifuged at 4° C. at a rotation speed of 15000 for 15 minutes to separate the supernatant plasma, and was preserved at −30° C. until analyzed. The brain tissues were thawed by standing at ambient temperature, and then the wet weight was measured. Distilled water was added in an amount five times of the wet weight, and a suspension was prepared using a Polytron homogenizer. The measurement of the test compound concentration in the plasma and the brain tissues was performed by LC/MS/MS. The transferability of the drug to the brain was calculated by dividing the drug concentration in the brain tissues by the plasma concentration obtained at the same time.

Na^+/H^+ exchanger (NHE) = molecular target: T1, Na^+/H^+ exchanger (NHE) (Rattus norvegicus, UniProt P26431); assay: NHE inhibitory effect test (swelling of rat platelets induced by sodium propionate); assay type: cell-based; conditions: rat platelet-rich plasma, sodium propionate buffer pH 6.7; 300 μM Amiloride taken as 100% inhibition; Probit method
T1 construct: from tissue; host or cells: platelet-rich plasma from Wistar rat blood
Description: The NHE inhibitory activity was measured according to the method by Scholz et al. [British Journal of Pharmacology, Vol. 109, p. 562-568 (1993)], taking the swelling of rat platelets induced by sodium propionate as an index.
Under etherization, blood was collected (8 mL) from the abdominal aorta of a Wistar rat, and 1 mL of a citrate dextrose solution as an anticoagulant was added. The blood sample was immediately centrifuged at 90×g for 10 minutes, and then the collected supernatant was taken as platelet-rich plasma. Subsequently, to 250 μL of a 140 mM sodium propionate buffer solution containing the test compound dissolved in dimethylsulfoxide (pH 6.7, final dimethylsulfoxide concentration 1%), the platelet-rich plasma prepared in the above (number of platelet; 10×10^6/50 μL) was added, and the decrease in the absorbance associated with the swelling of platelets was measured over time with a Hematracer (NKK Corp.).
The rate of decrease in the absorbance at 20 seconds after the addition of the platelet-rich plasma was taken as the NHE activity, and the inhibitory activity of the respective compounds was expressed as a relative activity, while the action obtained upon addition of 300 μM of Amiloride was taken as 100% inhibition.
In addition, the test results were obtained by calculating the concentration at which the inhibitory activity of the test compound becomes 50% (IC50 value), by a Probit method.

[3] = test system: reperfusion-induced arrhythmia upon myocardial ischemia; assay: Reperfusion-induced arrhythmia inhibitory action test; assay type: in vivo, rat; conditions: male SD rats, 1 mL/kg intravenous
Description: Subsequently, in evaluation of the in vivo NHE inhibitory action, the effect of the test compound on reperfusion-induced arrhythmia upon myocardial ischemia was evaluated according to the method of Aihara et al. [European Journal of Pharmacology, Vol. 404, p. 221-229 (2000)]. Under anesthesia using pentobarbital sodium (60 mg/kg, intraperitoneal administration), cannulae were inserted into trachea, femoral vein and carotid artery of male SD rats ([…]) for artificial ventilation, drug administration and blood pressure measurement, respectively. The blood pressure was measured using a strain pressure amplifier via a pressure transducer, while the heart rate was measured from the blood pressure pulse wave using a cardiotachometer. Furthermore, an electrocardiogram (lead II) was measured from the electrodes attached to each four limbs. Next, under artificial ventilation, left thoracotomy was performed and a snare (5-0 nylon) was loosely placed around a blood vessel which was about 3 mm apart from the origin of the left coronary artery. Thereafter, it was confirmed that arrhythmia was not occurred for 10 minutes, and then the snare was fastened to induce local myocardial ischemia. Furthermore, after 4 minutes of myocardial ischemia, the compound was intravenously administered for 1 minute, and after 5 minutes of myocardial ischemia, the snare was loosened, then the arrhythmia occurred after reperfusion was recorded and analyzed with an arrhythmia analyzer (Softron Co., Ltd.), thereby the anti-arrhythmic action of the compound was evaluated. […] The control group was administered with physiological saline.
With regard to the ventricular fibrillation (Vf) which occurred within 10 minutes after reperfusion (in the cases of halfway death, up to the time point where cardiac arrest was confirmed), arrhythmia analysis was performed according to the Guidelines for Lambeth Convention [Cardiovascular research, Vol. 22, p. 447-455, 1988], and evaluation was made in terms of the frequency of Vf occurrence, cumulative duration time of Vf, and the mortality.
The frequency of Vf occurrence, cumulative duration of Vf, and the mortality for the respective test compounds are presented in Table 2.

Beagle dogs = assay: Toxicity test after 4-days repeated intravenous administration in beagle dogs; assay type: in vivo, dog; conditions: equivalent of 30 mg/kg control compound intravenously once a day for 4 days
Description: With one male and one female dogs in each group, 30 mg/kg of the Control Compound dissolved in physiological saline (an amount calculated excluding salts), or an equivalent amount of the Inventive Compound 2, 4, 6 or 8 was repeatedly administered intravenously once a day for 4 days, and general symptom observation and pharmacological histopathologic examination were performed.

male mice = assay: Toxicity test with 2-days repeated intraperitoneal administration in mouse; assay type: in vivo; conditions: equivalent of 300 mg/kg control compound intraperitoneally once a day for 2 days
Description: For three male mice in each group, 300 mg/kg of the Control Compound (an amount calculated excluding salts), or an equivalent amount of the Inventive Compound 2, 4, 6, 7 or 12 were intraperitoneally administered once a day for 2 days, and a histopathological tests were performed. The Control Compound, and the Inventive Compounds 2, 4 and 6 were suspended in a 0.5% tragacanth gum solution, and the Inventive Compound 7 was suspended in a 10 DMSO-containing 0.5% tragacanth gum solution, while the Inventive Compound 12 was suspended in olive oil. For the histopathological test, in order to make a more thorough examination of central nervous toxicity, the brain was examined after whole body was subjected to perfusion fixation with a 4% formaldehyde in neutral phosphate buffer as a fixing solution using a liquid transporting pump under pentobarbital sodium anesthesia.

[4] = 3.62 mmol/L, within 10 minutes after reperfusion

T1 sequence (P26431 whole entry): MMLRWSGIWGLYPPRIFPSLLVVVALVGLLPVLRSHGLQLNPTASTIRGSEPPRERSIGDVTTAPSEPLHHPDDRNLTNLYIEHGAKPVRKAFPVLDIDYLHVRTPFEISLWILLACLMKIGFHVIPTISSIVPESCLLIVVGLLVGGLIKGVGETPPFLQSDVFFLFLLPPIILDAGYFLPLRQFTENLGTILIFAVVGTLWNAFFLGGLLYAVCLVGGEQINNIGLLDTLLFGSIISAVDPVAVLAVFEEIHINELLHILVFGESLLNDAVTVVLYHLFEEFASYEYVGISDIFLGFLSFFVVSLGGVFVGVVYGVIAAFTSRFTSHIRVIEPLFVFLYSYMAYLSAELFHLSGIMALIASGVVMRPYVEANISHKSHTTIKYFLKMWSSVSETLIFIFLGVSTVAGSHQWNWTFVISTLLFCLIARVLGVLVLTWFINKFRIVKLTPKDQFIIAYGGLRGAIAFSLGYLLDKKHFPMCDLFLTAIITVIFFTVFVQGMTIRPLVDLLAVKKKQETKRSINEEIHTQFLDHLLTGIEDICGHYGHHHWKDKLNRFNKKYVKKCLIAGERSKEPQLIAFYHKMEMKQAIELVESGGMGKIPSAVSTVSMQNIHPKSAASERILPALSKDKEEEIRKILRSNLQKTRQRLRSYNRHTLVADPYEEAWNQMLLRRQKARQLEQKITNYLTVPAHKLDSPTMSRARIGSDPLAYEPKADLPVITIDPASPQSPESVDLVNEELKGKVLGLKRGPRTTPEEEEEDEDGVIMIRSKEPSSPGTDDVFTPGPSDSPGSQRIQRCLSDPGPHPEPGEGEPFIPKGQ

SMILES | Plasma concentration of the control compound, after 5 min [1] | Plasma concentration of the control compound, after 15 min [1] | Plasma concentration of the control compound, after 30 min [1] | Plasma concentration of the control compound, after 60 min [1] | Plasma concentration of the control compound, after 120 min [1] | Concentration Intracerebral/Plasma, after 15 min ([2]; 15 min) | Concentration Intracerebral/Plasma, after 30 min ([2]; 30 min) | IC50 (Na^+/H^+ exchanger (NHE)) | Cumulative duration of Vf [3, 4] | Frequency of Vf occurrence [3, 4] | Mortality [3, 4] | General condition (symptom observation) (Beagle dogs) | Pathologic examination of the brain (Beagle dogs) | Histopathological finding in the brain (male mice) | Decomposition into the Control Compound in vivo (in words) [1] | Cumulative duration of Vf ([3]; 1.09 mmol/L, 5 animals) | Frequency of Vf occurrence ([3]; 1.09 mmol/L, 5 animals) | Mortality ([3]; 1.09 mmol/L, 5 animals)
CS(=O)(=O)O.Cc1nc2c(cc1C(=O)NC(=N)N)CCCCC2CO (stereo not shown) [Control Compound, 9-Hydroxymethyl-2-methyl-6,7,8,9-tetrahydro-5H-cyclohepta[b]pyridine-3-carbonylguanidine methanesulfonic acid salt, reference compound] | +++ (+++ when the detected plasma concentration of the control compound is 200 ng/mL or greater) | ++ (++ for more than 100 ng/mL and less than 200 ng/mL) | + (+ for more than 20 ng/mL and less than 100 ng/mL) | + (+ for more than 20 ng/mL and less than 100 ng/mL) | − (− for less than 20 ng/mL or no detection) | 1.64 | 2.33 | 33.4 nM | 30.2 s | 50% | 25% | vomiting, salivation, and decreases in locomotor activity, staggering gait and ananastasia | necrosis/chromatolysis of nerve cells, swelling of axons and vacuolation of myelin sheath | vacuolation was recognized in the cerebellar nuclei and vestibular nuclei | – | – | – | –
Cc1nc2c(cc1C(=O)NC(=N)N)CCCCC2CS(=O)(=O)[O-].[Na+] (stereo not shown) [Inventive Compound 4, 3-Guanidinocarbonyl-2-methyl-6,7,8,9-tetrahydro-5H-cyclohepta[b]pyridin-9-ylmethanesulfonic acid sodium salt] | − (− for less than 20 ng/mL or no detection) | − (− for less than 20 ng/mL or no detection) | − (− for less than 20 ng/mL or no detection) | − (− for less than 20 ng/mL or no detection) | − (− for less than 20 ng/mL or no detection) | – | – | 211 nM | 25.3 s | 60% | 0% | only vomiting was recognized | any histologic finding which could be caused by drug administration was not recognized | any histologic finding which could be caused by drug administration was not recognized | not detected at any time point | – | – | –
Cc1nc2c(cc1C(=O)NC(=N)N)CCCCC2COC(=O)NCCOS(=O)(=O)[O-].[Na+] (stereo not shown) [Inventive Compound 6, 2-(3-Guanidinocarbonyl-2-methyl-6,7,8,9-tetrahydro-5H-cyclohepta[b]pyridin-9-ylmethyloxycarbonylamino)ethyl sulfate sodium salt] | − (− for less than 20 ng/mL or no detection) | − (− for less than 20 ng/mL or no detection) | − (− for less than 20 ng/mL or no detection) | − (− for less than 20 ng/mL or no detection) | − (− for less than 20 ng/mL or no detection) | – | – | 142 nM | – | – | – | only vomiting was recognized | any histologic finding which could be caused by drug administration was not recognized | any histologic finding which could be caused by drug administration was not recognized | not detected at any time point | 23.3 s | 20% | 0%
